The values below are quoted from earlier work in article PMC7179723, “Self-Assembly of Minimal Peptoid Sequences” (ACS Macro Letters, 2020).

The conditions of this data set: assembly requires dilution from an organic solution; literature statement. From the text:
Control of self-assembly using sequence-specific polymers such as peptides and their mimics is a powerful approach to generating functional nanomaterials. Very short self-assembling peptides and their mimics (e.g., ≤ 5 residues) are of special interest since they are more easily scalable and they lead to insight into assembly requirements.[1] Their discovery is nontrivial since assembly propensity (e.g., hydrophobic interactions and hydrogen bonding) and favorable solvent (water) interactions must be balanced among just a few residues.[1]−[3] […] Alternatively, lamellar nanostructures were observed when the dipeptoid was precipitated in water from an ACN solution.

Regarding diphenylalanine [FF], the solubility in water entry was “not directly soluble in water”.
